Experimental data as given in PubChem BioAssay (NCI).
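GI50 marks 50% less growth. At the TGI there is no net growth.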

Legend:
Test in all cases: inhibition of tumour cell growth, NCI panel, 384-well format
[1] = tested on: 786-0 renal
[2] = tested on: A498 renal
[3] = tested on: ACHN renal
[4] = tested on: BT-549 breast
[5] = tested on: CAKI-1 renal
[6] = tested on: CCRF-CEM leukemia
[7] = tested on: COLO 205 colon
[8] = tested on: DU-145 prostate
[9] = tested on: EKVX NSCLC
[10] = tested on: HCC-2998 colon
[11] = tested on: HCT-116 colon
[12] = tested on: HCT-15 colon
[13] = tested on: HL-60(TB) leukemia
[14] = tested on: HOP-62 NSCLC
[15] = tested on: HOP-92 NSCLC
[16] = tested on: HS 578T breast
[17] = tested on: HT29 colon
[18] = tested on: KM12 colon
[19] = tested on: LOX IMVI melanoma
[20] = tested on: M14 melanoma
[21] = tested on: MALME-3M melanoma
[22] = tested on: MCF7 breast
[23] = tested on: MDA-MB-231 breast
[24] = tested on: MDA-MB-435 melanoma
[25] = tested on: MDA-MB-468 breast
[26] = tested on: NCI-H226 lung
[27] = tested on: NCI-H23 lung
[28] = tested on: NCI-H322M lung
[29] = tested on: NCI-H460 NSCLC
[30] = tested on: NCI-H522 lung
[31] = tested on: NCI/ADR-RES ovarian
[32] = tested on: OVCAR-3 ovarian
[33] = tested on: OVCAR-4 ovarian
[34] = tested on: OVCAR-8 ovarian
[35] = tested on: PC-3 prostate
[36] = tested on: RPMI-8226 leukemia
[37] = tested on: RXF 393 renal
[38] = tested on: SF-268 CNS
[39] = tested on: SF-295 CNS
[40] = tested on: SF-539 CNS
[41] = tested on: SK-MEL-28 melanoma
[42] = tested on: SK-MEL-5 melanoma
[43] = tested on: SK-OV-3 ovarian
[44] = tested on: SN12C renal
[45] = tested on: SNB-19 CNS
[46] = tested on: SNB-75 CNS
[47] = tested on: SR leukemia
[48] = tested on: SW-620 colon
[49] = tested on: T-47D breast
[50] = tested on: TK-10 renal
[51] = tested on: U251 glioblastoma
[52] = tested on: UACC-257 melanoma
[53] = tested on: UACC-62 melanoma
[54] = tested on: UO-31 renal

`COc1cc(Nc2ncc(F)c(Nc3ccc4c(n3)NC(=O)C(C)(C)O4)n2)cc(OC)c1OC` was tested, and the GI50 [1] was 16.3 µM, the TGI [1] was > 100 µM and the GI50 [2] was 20.6 µM. For the same compound, the TGI [2] was > 100 µM, the GI50 [3] was 1.6 µM and the TGI [3] was > 100 µM. The GI50 [4] was 4.37 µM, the TGI [4] was > 100 µM and the GI50 [5] was 0.445 µM. The TGI [5] was > 100 µM, the GI50 [6] was 9.52 µM and the TGI [6] was > 100 µM. The GI50 [7] was 4.34 µM, the TGI [7] was 29.8 µM and the GI50 [8] was 14.6 µM. For the same compound, the TGI [8] was > 100 µM, the GI50 [9] was 0.808 µM and the TGI [9] was > 100 µM. The GI50 [10] was 14.7 µM, the TGI [10] was > 100 µM and the GI50 [11] was > 100 µM. For the same compound, the TGI [11] was > 100 µM, the GI50 [12] was 4.36 µM and the TGI [12] was > 100 µM. It also gave a GI50 [13] of 3.37 µM, a TGI [13] of 8.28 µM and a GI50 [14] of 5.75 µM. The TGI [14] was 31.7 µM, the GI50 [15] was 15.4 µM and the TGI [15] was > 100 µM. For the same compound, the GI50 [16] was 0.805 µM, the TGI [16] was 18.4 µM and the GI50 [17] was 10.6 µM. The TGI [17] was > 100 µM, the GI50 [18] was 0.346 µM and the TGI [18] was > 100 µM. For the same compound, the GI50 [19] was 6.19 µM, the TGI [19] was > 100 µM and the GI50 [20] was 24.7 µM. For the same compound, the TGI [20] was > 100 µM, the GI50 [21] was 29.5 µM and the TGI [21] was > 100 µM. The GI50 [22] was 3.9 µM, the TGI [22] was > 100 µM and the GI50 [23] was 2.58 µM. For the same compound, the TGI [23] was 97 µM, the GI50 [24] was 9.68 µM and the TGI [24] was > 100 µM. The GI50 [25] was 5.78 µM, the TGI [25] was > 100 µM and the GI50 [26] was 0.319 µM. The TGI [26] was 13.2 µM, the GI50 [27] was 0.538 µM and the TGI [27] was > 100 µM. For the same compound, the GI50 [28] was 4.17 µM, the TGI [28] was > 100 µM and the GI50 [29] was 11.3 µM. The TGI [29] was > 100 µM, the GI50 [30] was 0.7 µM and the TGI [30] was 13.1 µM. The GI50 [31] was 13.4 µM, the TGI [31] was > 100 µM and the GI50 [32] was 6.28 µM. The TGI [32] was > 100 µM, the GI50 [33] was 16.4 µM and the TGI [33] was > 100 µM. For the same compound, the GI50 [34] was 4.11 µM, the TGI [34] was 19.7 µM and the GI50 [35] was 8.94 µM. For the same compound, the TGI [35] was > 100 µM, the GI50 [36] was > 100 µM and the TGI [36] was > 100 µM. The GI50 [37] was 0.516 µM, the TGI [37] was 30.9 µM and the GI50 [38] was 2.55 µM. The TGI [38] was 47.4 µM, the GI50 [39] was 3.65 µM and the TGI [39] was > 100 µM. It also gave a GI50 [40] of 1.24 µM, a TGI [40] of 17.8 µM and a GI50 [41] of 43.8 µM. For the same compound, the TGI [41] was > 100 µM, the GI50 [42] was 7.41 µM and the TGI [42] was > 100 µM. The GI50 [43] was 0.371 µM, the TGI [43] was > 100 µM and the GI50 [44] was 0.258 µM. For the same compound, the TGI [44] was > 100 µM, the GI50 [45] was 28.5 µM and the TGI [45] was > 100 µM. The GI50 [46] was 1.17 µM, the TGI [46] was 28 µM and the GI50 [47] was 1.27 µM. The TGI [47] was 2.72 µM, the GI50 [48] was > 100 µM and the TGI [48] was > 100 µM. The GI50 [49] was 52.6 µM, the TGI [49] was > 100 µM and the GI50 [50] was > 100 µM. The TGI [50] was > 100 µM, the GI50 [51] was 38.9 µM and the TGI [51] was > 100 µM. For the same compound, the GI50 [52] was > 100 µM, the TGI [52] was > 100 µM and the GI50 [53] was > 100 µM. The TGI [53] was > 100 µM, the GI50 [54] was 55.1 µM and the TGI [54] was > 100 µM.
